The results in this text go back to PubChem BioAssay (NCI).

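48-hour exposure; five concentrations; linearly interpolated endpoints. Abbreviation: GI50, concentration required for 50% inhibition of growth. TGI marks complete inhibition of growth.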 Some results are limits rather than exact numbers.

Common to all, as to assay: NCI anticancer screen, dose series, 48 h
The test system of assay [1] is COLO 205 colon.
For assay [2], the system named is HCC-2998 colon.
The subject of assay [3] is HL-60(TB) leukemia.
For assay [4], the system named is IGROV1 ovarian.
Assay [5] concerns KM12 colon.
The subject of assay [6] is MDA-MB-231 breast.
For assay [7], the system named is NCI-H460 lung.
The test system of assay [8] is RPMI-8226 leukemia.
The subject of assay [9] is SN12C renal.
For assay [10], the system named is UO-31 renal.

For the compound `C/C=C(\C)C(=O)O[C@@H]1C=CC(=O)O[C@H]1CNC(=O)[C@H](C)O`, the GI50 in [1] is 8.96 µM; in assay [2], 20.4 µM; in assay [3] it was 8.67 µM; in assay [4], 26.6 µM; in assay [5], 17.3 µM; in [6] it was 21.8 µM. For the same compound, the GI50 was 22.2 µM in assay [7], 9.12 µM in assay [8], 26.9 µM in assay [9] and 21.3 µM in [10]. The TGI in assay [1] is 27.2 µM; in assay [2], 40.9 µM; in assay [3], 32.3 µM; in [4] it was greater than 78.1 µM; in assay [5] it was 36.3 µM; in assay [6], 45.5 µM. The TGI was 67.9 µM in assay [7], 33.3 µM in assay [8], greater than 75.6 µM in assay [9] and 59.1 µM in assay [10].

Regarding `CC[Si](CC)(CC)OC1[C@@H](O[Si](CC)(CC)CC)[C@@H](CNC(=O)NC)O[C@H]1n1cnc2c(NC(=O)Nc3ccccc3)ncnc21` (stereo partly specified), the GI50 is 2.09 µM in assay [1]; 3.22 µM in [2]; 2.49 µM in assay [3]; 5.02 µM in assay [4]; 3.26 µM in assay [5]; 4.18 µM in [6]. The GI50 in assay [7] is 2.48 µM; in assay [8], 2.13 µM; in assay [9], 2.04 µM; in [10], 2.8 µM. Besides, the TGI was 3.62 µM in assay [1]; 16.2 µM in assay [2]; 6.32 µM in [3]; greater than 100 µM in [4]; 9.5 µM in assay [5]; 56.1 µM in [6]. Further, the TGI is 6.61 µM in assay [7], 5.33 µM in assay [8], 4.92 µM in [9] and 18.1 µM in assay [10].

`c1ccc(/C(=N\Nc2nc3ccccc3s2)c2ccccn2)cc1`: the TGI in assay [1] was 16.9 µM; in assay [2], 46 µM; in assay [3] it was 6.54 µM; in [4], greater than 48.2 µM; in assay [5], greater than 100 µM; in [6] it was greater than 100 µM. In addition, the TGI in [7] is 12.8 µM; in assay [8], 27.9 µM; in [9], 39.8 µM; in assay [10], 16.3 µM.

As to `COc1ccc(-c2nnc(Nc3nc(O)c(C4=c5cc(Br)ccc5=NC4=O)s3)o2)cc1`, the GI50 is 32 µM in [1]; 1.34 µM in assay [2]; 0.633 µM in assay [3]; 2.68 µM in assay [4]; 3.54 µM in [5]; 0.421 µM in assay [6]. Also, the GI50 in assay [7] is 22.6 µM; in [8], 17.3 µM; in assay [9], 15.5 µM; in [10] it was 19.4 µM. Moreover, the TGI in assay [1] was greater than 100 µM; in assay [2], 33.8 µM; in assay [3], 9.89 µM; in [4], 23.8 µM; in [5], 23.5 µM; in assay [6] it was 10 µM. For the same compound, the TGI is greater than 100 µM in assay [7], greater than 66.5 µM in assay [8], 52.8 µM in [9] and 63.1 µM in [10].

With `CCN(CC)CCCNc1cc(OC)c(OC)c2cccnc12`, the GI50 in assay [1] is 10 µM; in assay [2], 11.9 µM; in [3] it was 3.47 µM; in assay [5], 13 µM; in [6], 6.69 µM; in [7], 1.47 µM. Besides, the GI50 in [8] is 11.2 µM; in assay [9] it was 2.47 µM; in assay [10] it was 14.1 µM. In addition, the TGI stood at 23.2 µM in [1]; 25.7 µM in [2]; 6.55 µM in [3]; 31 µM in [5]; 51.4 µM in assay [6]; 16.9 µM in assay [7]. Besides, the results for the TGI in [8], in [9] and in [10] were 40.7 µM, 7.7 µM and greater than 100 µM, respectively.

On to `CCOC(=O)CCSC1=CC(=O)c2nc3ccccc3c3ccnc1c23`, for which the GI50 in assay [1] was 24.9 µM; in [2], 19.2 µM; in assay [3], 26.7 µM; in assay [4], 22.7 µM; in assay [5], 15 µM; in assay [6], 16.7 µM. Moreover, the GI50 in [7] was 13.4 µM; in [8], 9.55 µM; in assay [9] it was 15.7 µM; in assay [10], 16.3 µM. The TGI was greater than 100 µM in assay [1]; 40.2 µM in assay [2]; greater than 100 µM in [3]; greater than 100 µM in [4]; 34.1 µM in assay [5]; 41.6 µM in assay [6]. Besides, the TGI was 50.1 µM in assay [7], greater than 100 µM in assay [8], 31.8 µM in assay [9] and 34.9 µM in assay [10].

For `O=C(Nc1cc2cc([N+](=O)[O-])ccc2oc1=O)c1cccs1`, the TGI was 85.2 µM in assay [1]; greater than 100 µM in assay [2]; 44.5 µM in [3]; greater than 100 µM in assay [4]; 72.9 µM in [5]; greater than 100 µM in [6]. The TGI in assay [7], in [8], in assay [9] and in assay [10] was greater than 100 µM each time.

As for `CC(=O)O[C@H]1CC[C@]2(C)C3C(=O)C[C@]4(C)[C@@H](C(C)CCC(=O)O)CC[C@@]4(C)[C@@H]3CC[C@H]2C1(C)C` (stereo partly specified), the GI50 is 20.9 µM in assay [1]; 8.65 µM in assay [3]; 34.7 µM in assay [4]; 13.9 µM in [5]; greater than 50 µM in [6]; 14.3 µM in [7]. Besides, the GI50 is 9.79 µM in [8], greater than 50 µM in [9] and 40.7 µM in [10]. Also, the TGI in assay [1] is greater than 50 µM; in assay [3] it was greater than 50 µM; in assay [4] it was greater than 50 µM; in assay [5] it was 38.4 µM; in [6] it was greater than 50 µM; in assay [7], greater than 50 µM. Besides, the TGI in [8], in assay [9] and in assay [10] was greater than 50 µM throughout.

For the compound `CC1(C)CC[C@]2(CO)CC[C@]3(C)C(=CC[C@@H]4[C@@]5(C)CCNCC(C)(C)[C@@H]5CC[C@]43C)[C@@H]2C1`, the GI50 in assay [1] was 1.9 µM; in assay [2] it was 1.89 µM; in [3] it was 2.45 µM; in assay [4] it was 6.83 µM; in assay [5], 3.32 µM; in assay [6], 3.49 µM. For the same compound, the GI50 was 2.08 µM in [7], 4.08 µM in assay [9] and 5.33 µM in [10]. Moreover, the TGI in assay [1] was 4 µM; in [2], 4.07 µM; in assay [3], 7.34 µM; in [4], 21 µM; in assay [5], 12.2 µM; in assay [6], 11.6 µM. The TGI came to 4.82 µM in assay [7], 16.9 µM in assay [9] and 21.2 µM in [10].

For the compound `CCOC(=O)c1cc(C(=O)c2cc(OC)c(OC)c(OC)c2)n2ccc(-c3cc[n+](CC(=O)c4cc(OC)c(OC)c(OC)c4)cc3)cc12`, the GI50 in [2] was 3.32 µM; in [3], 2.58 µM; in [4], 2.12 µM; in assay [5], 1.81 µM; in assay [6], 1.66 µM; in assay [7], 2 µM. Moreover, the GI50 in [9] is 1.87 µM; in [10] it was 7.97 µM. In addition, the TGI in assay [2] came out at 15.1 µM; in assay [3], 5.75 µM; in assay [4] it was 5.92 µM; in [5], 3.42 µM; in assay [6] it was 3.29 µM; in [7], 3.78 µM. The figures for the TGI in assay [9] and in [10] were 3.87 µM and 26.5 µM, respectively.

With `CCOC(=O)c1ccc(NC(=O)c2cccc(NC3=C(Cl)C(=O)N(Cc4ccccc4)C3=O)c2)cc1`, the GI50 in assay [1] was greater than 100 µM; in [3], 17.2 µM; in [4], 65 µM; in [5], greater than 100 µM; in assay [6] it was 92 µM; in [7], greater than 100 µM. For the same compound, the GI50 is 37.5 µM in [8] and greater than 100 µM in assay [9]. Moreover, the TGI in assay [1] is greater than 100 µM; in [3], 45.9 µM; in assay [4] it was greater than 100 µM; in assay [5] it was greater than 100 µM; in [6], greater than 100 µM; in [7], greater than 100 µM. The TGI in assay [8] and in [9] was greater than 100 µM each time.

Turning to `Cc1cn(C2CC(O)C(COC(N)=O)O2)c(=O)[nH]c1=O` (stereo unspecified), the TGI in [1], in assay [3], in assay [4], in assay [5], in assay [6] and in assay [7] was greater than 100 µM each time. Besides, the TGI in assay [8], in [9] and in assay [10] was greater than 100 µM throughout.

Take `CC(=N\O)/C(C)=N/O.CC(=N\O)/C(C)=N/O.[Fe].[NH2-].c1c[nH]cn1`: the GI50 in [1], in assay [3], in assay [4], in assay [5], in assay [6] and in [7] was greater than 100 µM throughout. The GI50 in assay [8] was greater than 100 µM; in assay [9] it was greater than 100 µM; in [10], 1.43 µM. Moreover, the TGI in [1], in assay [3], in assay [4], in assay [5], in assay [6] and in [7] was greater than 100 µM in each case. The TGI in [8] was greater than 100 µM; in [9], greater than 100 µM; in assay [10], 4.34 µM.

Consider `CCSCCCC(=O)O`, for which the TGI in [1], in assay [2], in [3], in assay [4], in assay [5] and in assay [6] was greater than 100 µM throughout. The TGI in [8], in [9] and in assay [10] was greater than 100 µM each time.

In the case of `Nc1cc(N)c2nc(-c3ccccc3)c(NCc3ccc(Cl)c(Cl)c3)nc2c1`, the GI50 in assay [1] was 16.9 µM; in assay [3], 1.82 µM; in assay [4] it was 1.97 µM; in [5] it was 3.42 µM; in assay [6], 1.58 µM; in assay [7] it was 20.8 µM. Moreover, the GI50 in assay [8] is 1.66 µM; in assay [9], 5.98 µM; in [10] it was 4.17 µM. In addition, the TGI was found to be 33.6 µM in [1]; 7.94 µM in assay [3]; 5.95 µM in assay [4]; 21.3 µM in [5]; 4.45 µM in [6]; 46.9 µM in assay [7]. Besides, the TGI in assay [8] was 3.72 µM; in assay [9], 24 µM; in [10] it was greater than 100 µM.

For `O=C(O)c1[nH]c2c([N+](=O)[O-])cc([N+](=O)[O-])cc2c1C(=O)O`, the TGI in assay [1], in assay [2], in assay [3], in assay [4], in assay [5] and in [6] was greater than 100 µM each time. For the same compound, the TGI in [7], in [9] and in [10] was greater than 100 µM throughout.

`Cc1ccc(C2C3Cc4ccccc4C3=NN2c2ccc(S(=O)(=O)NC(=O)Nc3ccccc3)cc2)cc1` (stereo unspecified): the GI50 in assay [1] was 18.6 µM; in assay [3] it was 19.6 µM; in [4], 1.15 µM; in assay [5], 17.3 µM; in assay [6], 10.8 µM; in assay [7] it was 19.3 µM. Further, the GI50 in [8] is 15 µM; in [9] it was 14 µM; in [10] it was 11.6 µM. Also, the TGI in assay [1] amounted to 53.3 µM; in assay [3], 42.1 µM; in [4] it was 19.7 µM; in [5] it was 43.2 µM; in assay [6], 22.7 µM; in assay [7] it was 70.1 µM. The TGI was found to be 47.2 µM in assay [8], 26.9 µM in assay [9] and 28.4 µM in assay [10].

For `Oc1ccc(/C=N/NC(=S)Nc2cccnc2)nc1`, the TGI was greater than 100 µM in [1]; greater than 100 µM in [2]; 14.4 µM in assay [3]; greater than 100 µM in assay [4]; greater than 100 µM in assay [5]; greater than 31.6 µM in assay [6]. Also, the results for the TGI in [8], in [9] and in assay [10] were 76.4 µM, greater than 57 µM and greater than 26.9 µM, respectively.
